Measurements as given in patent publication US20160046618A1, “Cyclopropyl Fused Thiazin-2-Amine Compounds as Beta-Secretase Inhibitors and Methods of Use” (AMGEN INC., priority 2014, published 2016).
Read-outs that look alike come from different tables or passages of the source.

Assays:
[1] = tested on: Aβ 40 in rat CSF; test: In vivo inhibition of beta-secretase: Aβ40 reduction in rat CSF; conditions: after 4 h
Description: (§1) In Vivo Inhibition of Beta-Secretase
Several animal models, including mouse, rat, dog, and monkey, may be used to screen for inhibition of beta-secretase activity in vivo following administration of a test compound sample. Animals used in this invention can be wild type, transgenic, or gene knockout animals. For example, the Tg2576 mouse model, prepared and conducted as described in Hsiao et al., 1996, Science 274, 99-102, and other non-transgenic or gene knockout animals are useful to analyze in vivo inhibition of Amyloid beta peptide (Abeta) production in the presence of inhibitory test compounds. Generally, 2 to 18 month old Tg2576 mice, gene knockout mice or non-transgenic animals are administered test compounds formulated in vehicles, such as cyclodextran, phosphate buffers, hydroxypropyl methylcellulose or other suitable vehicles. One to twenty-four hours following the administration of compound, animals are sacrificed, and brains as well as cerebrospinal fluid (CSF) and plasma are removed for analysis of A-beta levels and drug or test compound concentrations (Dovey et al., 2001, Journal of Neurochemistry, 76,173-181) Beginning at time 0, animals are administered by oral gavage, or other means of delivery such as intravenous injection, an inhibitory test compound of up to 100 mg/kg in a standard, conventional formulation, such as 2% hydroxypropyl methylcellulose, 1% Tween80. A separate group of animals receive 2% hydroxypropyl methylcellulose, 1% Tween80 alone, containing no test compound, and serve as a vehicle-control group. At the end of the test period, animals are sacrificed and brain tissues, plasma or cerebrospinal fluid are collected. […] Homogenates are centrifuged at 355,000 g, 4° C. for 30 minutes. CSF or brain supernatants are then analyzed for the presence of A-beta peptide by specific sandwich ELISA assays based on ECL (Electrochemiluminescence) technology. For example, rat Abeta40 is measured using biotinylated-4G8 (Signet) as a capture antibody and Fab40 (an in-house antibody specific to the C-terminal of Abeta40) as a detection antibody. For example, 4 hours after administration of 30 mg/kg oral dose of the test compound in 2% hydroxypropyl methylcellulose, 1% Tween80 (pH2.2) to 200 g male Sprague Dawley rats, amyloid beta peptide levels are measured for reduction by X % and Y % in cerebrospinal fluid and brain, respectively, when compared to the levels measured in the vehicle-treated or control mice.
(§2) Actual vehicles used: Oral: 2% HPMC, 1% Tween80, pH 2.2
The compounds of the invention may be shown to reduce the formation and/or deposition of amyloid beta peptide in the cerebrospinal fluid (CSF) as well as in the brain of a mouse or rat at either 3 mpk, 10 mpk or 30 mpk (mpk=mg compound per kg weight of the animal) dosing concentrations after 4 h.

[2] = molecular target: Recombinant Cat D (Homo sapiens (Human), UniProt P07339); test: In vitro enzymatic Cathepsin D (Cat D) FRET assay; type: biochemical; conditions: read-out: IC50 IP (μM) CatD
Chain of Recombinant Cat D (P07339 65-412): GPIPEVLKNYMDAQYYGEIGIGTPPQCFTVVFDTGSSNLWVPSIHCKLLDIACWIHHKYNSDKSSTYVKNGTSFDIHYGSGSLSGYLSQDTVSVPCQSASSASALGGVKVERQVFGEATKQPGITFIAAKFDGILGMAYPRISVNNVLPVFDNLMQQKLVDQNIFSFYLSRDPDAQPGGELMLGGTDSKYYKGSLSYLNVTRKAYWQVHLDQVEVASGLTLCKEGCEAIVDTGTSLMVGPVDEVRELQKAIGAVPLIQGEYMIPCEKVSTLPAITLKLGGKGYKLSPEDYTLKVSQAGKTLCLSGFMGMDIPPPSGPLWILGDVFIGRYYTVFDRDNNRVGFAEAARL
Summary of the method: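 Cleavage of a 20 nM FRET peptide by CHO-derived Cat D over 1 h at pH 3.5 (citrate buffer with CHAPS, 10% DMSO final). Endpoint fluorescence is read after Tris quench.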

[3] = molecular target: human recombinant BACE2 (Homo sapiens (Human), UniProt Q9Y5Z0); test: In vitro enzymatic BACE2 FRET assay; type: biochemical; conditions: read-out: IC50 IP (μM) BACE2 enzyme
Chain of human recombinant BACE2 (Q9Y5Z0 63-518): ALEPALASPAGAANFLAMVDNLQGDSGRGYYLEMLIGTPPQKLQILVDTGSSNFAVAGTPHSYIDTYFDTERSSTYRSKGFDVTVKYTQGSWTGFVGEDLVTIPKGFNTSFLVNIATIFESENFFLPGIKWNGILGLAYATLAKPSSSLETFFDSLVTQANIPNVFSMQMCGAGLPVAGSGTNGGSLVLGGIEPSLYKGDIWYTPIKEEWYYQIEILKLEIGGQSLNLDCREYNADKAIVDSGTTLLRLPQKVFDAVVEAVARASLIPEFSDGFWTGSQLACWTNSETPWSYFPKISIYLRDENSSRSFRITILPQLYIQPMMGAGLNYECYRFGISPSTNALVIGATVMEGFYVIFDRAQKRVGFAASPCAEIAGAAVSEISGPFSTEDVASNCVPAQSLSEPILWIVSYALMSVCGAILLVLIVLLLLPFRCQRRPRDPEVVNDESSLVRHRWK
Summary of the method: (§3)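 Ni-NTA-purified recombinant protease incubated with compound; reaction started with 50 nM FRET peptide substrate (fluorophore/quencher flanking the BACE cleavage site) and run 1 h. Stopped with Tris buffer raising pH to neutral; fluorescence read at ex 488/em 590 nm.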

[4] = tested on: Aβ 40 in rat brain; test: In vivo inhibition of beta-secretase: Aβ40 reduction in rat brain; conditions: after 4 h
Description: as §1
Several animal models, including mouse, rat, dog, and monkey, may be used to screen for inhibition of beta-secretase activity in vivo following administration of a test compound sample. Animals used in this invention can be wild type, transgenic, or gene knockout animals. […] One to twenty-four hours following the administration of compound, animals are sacrificed, and brains as well as cerebrospinal fluid (CSF) and plasma are removed for analysis of A-beta levels and drug or test compound concentrations (Dovey et al., 2001, Journal of Neurochemistry, 76,173-181) Beginning at time 0, animals are administered by oral gavage, or other means of delivery such as intravenous injection, an inhibitory test compound of up to 100 mg/kg in a standard, conventional formulation, such as 2% hydroxypropyl methylcellulose, 1% Tween80. A separate group of animals receive 2% hydroxypropyl methylcellulose, 1% Tween80 alone, containing no test compound, and serve as a vehicle-control group. At the end of the test period, animals are sacrificed and brain tissues, plasma or cerebrospinal fluid are collected. […] Homogenates are centrifuged at 355,000 g, 4° C. for 30 minutes. CSF or brain supernatants are then analyzed for the presence of A-beta peptide by specific sandwich ELISA assays based on ECL (Electrochemiluminescence) technology. For example, rat Abeta40 is measured using biotinylated-4G8 (Signet) as a capture antibody and Fab40 (an in-house antibody specific to the C-terminal of Abeta40) as a detection antibody.
as §2

[5] = molecular target: human recombinant BACE1 (Homo sapiens (Human), UniProt P56817); test: In vitro enzymatic BACE1 FRET assay; type: biochemical; conditions: read-out: IC50 IP (μM) BACE1 enzyme
Chain of human recombinant BACE1 (P56817 46-501): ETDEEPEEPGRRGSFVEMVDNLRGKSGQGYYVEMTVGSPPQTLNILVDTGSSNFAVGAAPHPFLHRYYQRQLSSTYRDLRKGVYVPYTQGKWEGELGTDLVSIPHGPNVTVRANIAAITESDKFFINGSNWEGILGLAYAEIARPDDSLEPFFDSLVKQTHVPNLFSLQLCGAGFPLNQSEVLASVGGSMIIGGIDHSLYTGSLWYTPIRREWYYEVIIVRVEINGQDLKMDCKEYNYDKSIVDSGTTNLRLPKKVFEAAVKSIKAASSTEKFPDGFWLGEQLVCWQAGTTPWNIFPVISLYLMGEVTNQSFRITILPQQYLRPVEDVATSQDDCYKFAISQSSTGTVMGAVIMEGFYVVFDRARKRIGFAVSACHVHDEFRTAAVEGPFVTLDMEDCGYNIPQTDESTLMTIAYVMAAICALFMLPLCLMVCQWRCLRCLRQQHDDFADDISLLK
Summary of the method: as §3

[6] = tested on: Aβ40 in conditioned medium of cells stably expressing Amyloid Precursor Protein (APP); test: In vitro BACE-1 cell-based assay (Aβ40 sandwich ELISA); conditions: read-out: IC50 IP (μM) BACE1 cell
Summary of the method: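 APP-expressing cells treated 24 h at 37 °C with compound in 10-point dose response (top 100 μM or 10 μM, 0.1% DMSO final). Secreted Aβ40 in conditioned medium quantified by sandwich ELISA (pAb40 capture, biotinylated 6E10 detection, time-resolved europium fluorescence); IC50 from percent inhibition versus concentration.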

Compound	IC50 ([2]; Cathepsin D FRET enzyme assay) [µM]	IC50 ([3]; BACE2 FRET enzyme assay) [µM]	IC50 ([5]; BACE1 FRET enzyme assay) [µM]	IC50 ([6]; BACE1 cell-based assay) [µM]	IC50 [2] [µM]	IC50 [3] [µM]	IC50 [5] [µM]	IC50 [6] [µM]	% Aβ 40 reduction in rat CSF at 10 mpk [1] [%]	% Aβ 40 reduction in rat brain at 10 mpk [4] [%]	% Aβ 40 reduction in rat CSF (3 mpk) [1]	% Aβ 40 reduction in rat brain (3 mpk) [4]
C#CCOc1cnc2c(Nc3ccc(F)c([C@@]4(CF)N=C(N)S[C@@]5(CO)C[C@H]54)c3)nccc2c1 [Example 52, ((1S,5S,6S)-3-amino-5-(fluoromethyl)-5-(2-fluoro-5-((3-(2-propyn-1-yloxy)-1,7-naphthyridin-8-yl)amino)phenyl)-2-thia-4-azabicyclo[4.1.0]hept-3-en-1-yl)methanol]	> 400	0.23	0.0105	0.00455					16	0		
NC1=N[C@](CF)(c2cc(NC(=O)c3ccc(Cl)cn3)cc(F)c2F)[C@@H]2C[C@@H]2S1 [Example 5, N-(3-((1S,5S,6S)-3-amino-5-(fluoromethyl)-2-thia-4-azabicyclo[4.1.0]hept-3-en-5-yl)-4,5-difluorophenyl)-5-chloro-2-pyridinecarboxamide]	1420	0.00154	0.00855	0.0326					43	19		
NC1=N[C@](CF)(c2cc(Nc3ncnc4cc(Cl)cnc34)ccc2F)[C@H]2C[C@@H]2S1 [Example 39, N-(3-((1S,5S,6S)-3-amino-5-(fluoromethyl)-2-thia-4-azabicyclo[4.1.0]hept-3-en-5-yl)-4-fluorophenyl)-7-chloropyrido[3,2-d]pyrimidin-amine]				0.024					50	23		
C[C@]1(c2cc(Nc3ncnc4cc(C#N)cnc34)cc(F)c2F)N=C(N)S[C@H]2C[C@H]21 [Example 36, 4-((3-((1S,5S,6S)-3-amino-5-methyl-2-thia-4-azabicyclo[4.1.0]hept-3-en-5-yl)-4,5-difluorophenyl)amino)pyrido[3,2-d]pyrimidine-7-carbonitrile]	250	0.0562		0.00767					74	46		
C#CCOc1cnc(C(=O)Nc2cc(F)c(F)c([C@@]3(C)N=C(N)S[C@@]4(CF)C[C@H]43)c2)cn1 [Example 810, N-(3-((1S,5S,6S)-3-amino-1-(fluoromethyl)-5-methyl-2-thia-4-azabicyclo[4.1.0]hept-3-en-5-yl)-4,5-difluorophenyl)-5-(prop-2-yn-1-yloxy)pyrazine-2-carboxamide]											79 (3 mpk) %	74 (3 mpk) %

Continued, in another order:

IC50 ([2]; Cathepsin D FRET enzyme assay) [µM]	IC50 ([3]; BACE2 FRET enzyme assay) [µM]	IC50 ([5]; BACE1 FRET enzyme assay) [µM]	IC50 ([6]; BACE1 cell-based assay) [µM]	IC50 [2] [µM]	IC50 [3] [µM]	IC50 [5] [µM]	IC50 [6] [µM]	Compound	% Aβ 40 reduction in rat CSF at 10 mpk [1] [%]	% Aβ 40 reduction in rat brain at 10 mpk [4] [%]	% Aβ 40 reduction in rat CSF (3 mpk) [1]	% Aβ 40 reduction in rat brain (3 mpk) [4]
				260	0.268	0.000527	0.0101	CC(C)NC(=O)[C@]12C[C@H]1[C@@](C)(c1cc(NC(=O)c3cnc(OCC(F)(F)F)cn3)ccc1F)N=C(N)S2 [Example 976, (1S,5S,6S)-3-amino-5-(2-fluoro-5-(5-(2,2,2-trifluoroethoxy)pyrazine-2-carboxamido)phenyl)-N-isopropyl-5-methyl-2-thia-4-azabicyclo[4.1.0]hept-3-ene-1-carboxamide]	36	16		
974	0.0228	0.00125	0.0216					C#CCOc1cnc(C(=O)Nc2cc(F)c(F)c([C@@]3(CF)N=C(N)S[C@H]4C[C@H]43)c2)c(C)n1 [Example 84, N-(3-((1S,5S,6S)-3-amino-5-(fluoromethyl)-2-thia-4-azabicyclo[4.1.0]hept-3-en-5-yl)-4,5-difluorophenyl)-3-methyl-5-(2-propyn-1-yloxy)-2-pyrazinecarboxamide]	40	8		
> 133		0.0107	0.0213					N#Cc1cnc2c(Nc3cc(F)c(F)c([C@@]4(CF)N=C(N)S[C@H]5C[C@H]54)c3)nccc2c1 [Example 26, 8-((3-((1S,5S,6S)-3-amino-5-(fluoromethyl)-2-thia-4-azabicyclo[4.1.0]hept-3-en-5-yl)-4,5-difluorophenyl)amino)-1,7-naphthyridine-3-carbonitrile]	38	34		
466	0.0497		0.0204					N#Cc1cnc2c(Nc3cc(F)c(F)c([C@@]4(CF)N=C(N)S[C@H]5C[C@H]54)c3)ncnc2c1 [Example 28, 4-((3-((1S,5S,6S)-3-amino-5-(fluoromethyl)-2-thia-4-azabicyclo[4.1.0]hept-3-en-5-yl)-4,5-difluorophenyl)amino)pyrido[3,2-d]pyrimidine-7-carbonitrile]	42	26		
1840		0.0696	0.0164					COc1cnc(C(=O)Nc2ccc(F)c([C@@]3(CF)N=C(N)S[C@H]4C[C@H]43)c2)cn1 [Example 4, N-(3-((1S,5S,6S)-3-amino-5-(fluoromethyl)-2-thia-4-azabicyclo[4.1.0]hept-3-en-5-yl)-4-fluorophenyl)-5-methoxy-2-pyrazinecarboxamide]	40	18		
			0.00082					C#CCOc1cnc(C(=O)Nc2cc(F)c(F)c([C@@]3(C)N=C(N)S[C@@]4(COC)C[C@H]43)c2)cn1 [Example 72, N-(3-((1S,5S,6S)-3-amino-1-(methoxymethyl)-5-methyl-2-thia-4-azabicyclo[4.1.0]hept-3-en-5-yl)-4,5-difluorophenyl)-5-(2-propyn-1-yloxy)-2-pyrazinecarboxamide]	85			
							0.000687	[2H]C([2H])([2H])OC[C@]12C[C@H]1[C@@](C)(c1cc(NC(=O)c3cnc(OCC#C)cn3)cc(F)c1F)N=C(N)S2 [Example 969, N-(3-((1S,5S,6S)-3-amino-5-methyl-1-(((trideuterium)methyloxy)methyl)-2-thia-4-azabicyclo[4.1.0]hept-3-en-5-yl)-4,5-difluorophenyl)-5-(2-propyn-1-yloxy)-2-pyrazinecarboxamide]			79 (3 mpk) %	79 (3 mpk) %
